Data set [1] deals with spike-and-wave discharges induced by gamma-butyrolactone (GBL). As to the kind of experiment: GBL induced absence seizure model, quantified EEG (spectral power, cortex). The data set is classed as in vivo, beagle dogs.
Method: The experiment was carried out on nine male non-naïve beagle dogs, weighing 9-15 kg. All animals were housed in a box or in a kennel under natural lighting with restricted access to food (approx. 300 g/animal/day) and unlimited access to water.
Dogs were implanted with an Emka Technologies telemetric device. Following an incision in the lateral neck region, the telemetric device was introduced into a pouch under the skin. The positive and negative biopotential electrodes were coiled into a loop and tunnelled subcutaneously to protrude into the opened scalp incision. The skin incisions then were closed.
Following a sagittal incision of the scalp, the top of the skull was prepared for implantation. The incision was performed between bregma and lambda sutures in order to place electrodes over the parietal cortex. Three small holes were drilled into the skull, on the right hemisphere. The tips of the electrodes were then pushed through the holes through the skull onto the dura mater. The electrodes were connected to small plugs, placed into a connector and the whole assembly was secured on skull with dental cement. The skin incisions then were closed using aseptic chirurgical thread.
Approximately 2 weeks later, the dogs were placed in a sling for the experiment.
For EEG recording, a telemetry receiver was located nearby the animal to record EEG.
All generated data was acquired and analysed using the EMKA Technologies software. The quality of the EEG signals was checked before launching EEG recording.
Before the experiment, EEG signals were recorded during a few minutes in baseline conditions to check the quality of the signals.
The baseline EEG recording was done for each dog, one day before the test session and lasted 40 minutes. Baseline and test sessions were done at the same time of the day for each dog.
EEG signals were recorded during 40 minutes to evaluate spike-and-wave discharges. The latency to observe spike-and-wave discharges was determined off-line on EEG signals.
The differential outputs between the 2 electrodes at each implantation site were digitized on-line at a sampling rate of 500 Hz/channel and the data stored in raw data files.
EEG was quantitatively analysed by spectral analysis using a Fast Fourier Transform algorithm. Spectra were calculated from epochs of 4.1-second duration. The mean total spectral power between 1.5 and 64 Hz and the power in 6 sub-frequency bands per brain structure recorded (1.5-4 (delta), 5-8 (theta), 8.5-12.5 (alpha), 13-35 (beta), 36-64 (gamma) and 3-6 Hz) was calculated on four 10-minute periods (from 0 to 10, 10 to 20, 20 to 30 and 30 to 40 minutes during baseline and test sessions).
Before being submitted to further analysis, all spectra containing recording artefacts found on visual inspection of the EEG traces were eliminated. Then the averages of 10-minute intervals of the verified individual spectra were saved into data files which then were transferred into Excel calculation sheets.
In data set [2] the test system is pilocarpine-induced seizures. Conditions: rodent seizure models; cited from earlier work.
The test system of data set [3] is postnatal day 10 and 20 rats. Conditions: cited from earlier work.
The next data set has as its system focal seizures in humans. The note with it: Phase II, placebo group similar; cited from earlier work.
Data set [4] can be described thus: Adverse effects observed in dogs of the GBL model studies.
Setting [5] is: CBDV 100 mg/kg p.o. 4 hours before GBL, across all four time periods.

As to `C=C(C)[C@@H]1CCC(C)=C[C@H]1c1c(O)cc(CCC)cc1O` [CBDV, cannabidivarin], in data set [1] (setting [5]), the “power of high frequency bands (beta and gamma)” value is on record as “increased”; the “spectral power of lower frequency bands (delta, theta and alpha)” value is “decreased”. Moreover, the “spectral power on delta frequency bands” value in data set [1] (CBDV 100 mg/kg p.o. 4 hours before GBL, time-interval 30-40 minutes, vs vehicle controls, p<0.05) is recorded as “significantly decreased”. For the same molecule, in data set [1] (CBDV 100 mg/kg p.o., following GBL administration, vs vehicle control), the “spectral power on 3-6 Hz frequency band” value is “lowered”. The “effect in pilocarpine-induced seizures” value in data set [2] is on record as “not found to have any effect”. Moreover, the anticonvulsant action result in data set [3] is “age and model-specific profile of anticonvulsant action”. The “reductions in focal seizures” value in the data set on focal seizures in humans is on record as “approximately 40%”.
`CN1C(=O)CN=C(c2ccccc2)c2cc(Cl)ccc21` [Diazepam]: the “power of high frequency bands (beta and gamma)” value in data set [1] (Diazepam 2 mg/kg p.o., across all four time periods) was “increased”. Moreover, the adverse effects observed result was “Motor incoordination and psychotic effects (stereotypies, involuntary movements, barks)” in data set [4] (diazepam 4 mg/kg, three dogs, during the test, after GBL administration); “the symptoms were stronger” in data set [4] (diazepam 6 mg/kg, two dogs, GBL could not be administered).

(Values after US20240226123A9, “USE OF CANNABIDIVARIN IN THE TREATMENT OF SEIZURES ASSOCIATED WITH CANINE EPILEPSY” (GW Research Limited, priority 2021, published 2024).)
